According to US20090025713A1, “Nebulised Antibiotics for Inhalation Therapy” (priority 2006, published 2009):
“And” between values parts separate entries of the source, which are not always exact repeats. Equal entries are not always repeated.

Test system: Calu-3 cells
Test: Cellular tolerability test: TEER of Calu-3 monolayers
Type: cell-based, human
Conditions: for TEER after 2 hours Mean [%]: in KRB; for effect on vitality of Calu-3 cells (in words): summary of Table 1
From the text: In addition to the physicochemical properties of drug formulations and their stability, either as solution or dispersed systems, it is helpful to investigate the cellular tolerability of such drug formulations in a cell culture test system. For this purpose the bronchial cell line Calu-3 was used as an in vitro model for toxicity assessment. Calu-3 represents a human submucosal adenocarcinoma cell line that forms tight, polarized and well differentiated monolayers with apical microvilli and tight junctional complexes. In contrast to other cell lines, Calu-3 cells generate extracellular mucus. […] In addition, it has been shown that loss of monolayer integrity is paralleled by a decrease in TEER to values below 600Ω·cm^2 and an increase in permeability. […] Since toxicity is paralleled by a loss of the monolayer integrity, a decrease in TEER of more than 50% is indicative for the toxicity of a test compound. […] The Calu-3 cell tests offer the possibility to investigate potential effects of the drug substance as well as the influence of excipients or formulation constituents.
TEER was determined in physiological Krebs Ringer buffer (KRB) for two hours after the application of the different formulations or excipients. A decrease of the measured resistance indicated an affection of intact epithelial cell-cell contacts (tight junctions), which is an extremely sensitive parameter to determine toxic effects. To assess whether such cell damage was reversible, the cells were incubated for 24 h in cell culture subsequently to the incubation with the test formulations.

[1] = conc. (undiluted), after 24 h in cell culture following incubation
[2] = conc. (undiluted; stock concentration given with each formulation name)
[3] = dilution 1:5, after 24 h in cell culture following incubation
[4] = dilution 1:10, after 24 h in cell culture following incubation

| Compound | TEER after 24 hours Mean [%] [1] [%] | TEER after 2 hours Mean [%] [2] [%] | TEER after 24 hours Mean [%] [3] [%] | TEER after 2 hours Mean [%] (dilution 1:5) | effect on vitality of Calu-3 cells (in words) | TEER after 24 hours Mean [%] [4] [%] | TEER after 2 hours Mean [%] (dilution 1:10) | TEER after 24 hours Mean [%] (positive control, 0.1% w/v in KRB, passages p44U, p45U, p46U, p47U) |
| --- | --- | --- | --- | --- | --- | --- | --- | --- |
| C[C@@H]1[C@H](O)[C@@H](C)/C=C/C=C/C=C/C=C/C=C/C=C/C=C/[C@H](O[C@@H]2O[C@H](C)[C@@H](O)[C@H](N)[C@@H]2O)C[C@@H]2O[C@](O)(C[C@@H](O)C[C@@H](O)[C@H](O)CC[C@@H](O)C[C@@H](O)CC(=O)O[C@H]1C)C[C@H](O)[C@H]2C(=O)O [Amphotericin B, reference compound] | 67 | 108 | 64 | 80 | No damaging effect | – | – | – |
| O=C1NS(=O)(=O)c2ccccc21.[Na] [Saccharin-Natrium] | 43 | 55 | 50 | 55 | – | – | – | – |
| Captisol | 58 | 114 | 56 | 98 | – | 66 | 83 | – |
| OC[C@H]1O[C@@H]2O[C@H]3[C@H](O)[C@@H](O)[C@@H](O[C@H]4[C@H](O)[C@@H](O)[C@@H](O[C@H]5[C@H](O)[C@@H](O)[C@@H](O[C@H]6[C@H](O)[C@@H](O)[C@@H](O[C@H]7[C@H](O)[C@@H](O)[C@@H](O[C@H]8[C@H](O)[C@@H](O)[C@@H](O[C@H]9[C@H](O)[C@@H](O)[C@@H](O[C@H]1[C@H](O)[C@H]2O)O[C@@H]9CO)O[C@@H]8CO)O[C@@H]7CO)O[C@@H]6CO)O[C@@H]5CO)O[C@@H]4CO)O[C@@H]3CO [Gamma-CD, γ-cyclodextrin] | 41 | 61 | 46 | 69 | – | 44 | 65 | – |
| Vitamin E TPGS | 50 | 47 | 49 | 48 | – | 51 | 47 | – |
| NC[C@H]1O[C@H](O[C@H]2[C@H](O)[C@@H](O[C@H]3O[C@H](CO)[C@@H](O)[C@H](N)[C@H]3O)[C@H](N)C[C@@H]2N)[C@H](N)C[C@@H]1O [Tobramycin (T100), Tobramycin, reference compound] | 46 | 94 | 79 | 123 | No damaging effect | – | – | – |
| O=C1O[C@H]([C@@H](O)CO)C([O-])=C1O.[Na+] [Sodium Ascorbate] | 70 | 22 | 66 | 70 | – | 51 | 57 | – |
| O=C(O)CC(O)(CC(=O)O)C(=O)O [Citric acid] | 53 | 105 | 44 | 40 | – | – | – | – |
| 2-hydroxypropyl-β-cyclodextrin [Example 2-HP-β-CD] | 45 | 59 | 77 | 86 | – | 73 | 90 | – |
| CCCCCCCCCCCCOS(=O)(=O)[O-].[Na+] [SDS, reference compound] | – | – | – | – | – | – | – | 10% and 6% and 8% |
